DBAASP
≈ marks a conversion by molar mass, not a printed value.

Tests used:
Test in all cases: ≥ marks a high value that may be exact or a test limit, other limits are often not marked, values filed in µg/mL are converted to µM
[1] = test system: Acinetobacter baumannii NM109
[2] = test system: Acinetobacter baumannii NM124
[3] = test system: Acinetobacter baumannii NM35
[4] = test system: Acinetobacter baumannii NM75
[5] = test system: Acinetobacter baumannii NM8
Acinetobacter baumannii = test system: Acinetobacter baumannii
[6] = test system: Candida albicans ATCC 90028
[7] = test system: Escherichia coli ATCC 25726
[8] = test system: Staphylococcus aureus ATCC 25923
[9] = test system: Candida albicans NCYC 1467
[10] = test system: Escherichia coli NCTC 10418
[11] = test system: Pseudomonas aeruginosa ATCC 27853
[12] = test system: Staphylococcus aureus NCTC 10788
Proteus mirabilis = test system: Proteus mirabilis
Pseudomonas aeruginosa = test system: Pseudomonas aeruginosa
Staphylococcus aureus = test system: Staphylococcus aureus
Streptococcus pyogenes = test system: Streptococcus pyogenes

Compound: CC[C@H](C)[C@H](NC(=O)CN)C(=O)N[C@@H](Cc1c[nH]c2ccccc12)C(=O)N[C@@H](CCCCN)C(=O)N[C@H](C(=O)N[C@H](C(=O)N[C@@H](CCCCN)C(=O)N[C@@H](CO)C(=O)N[C@@H](CCSC)C(=O)NCC(=O)N[C@@H](CCCCN)C(=O)N[C@H](C(=O)N[C@@H](Cc1ccccc1)C(=O)N[C@@H](C)C(=O)NCC(=O)N[C@@H](C)C(=O)N[C@H](C(=O)N[C@@H](CCCCN)C(=O)N[C@@H](CCC(N)=O)C(=O)N[C@@H](CC(N)=O)C(=O)N[C@@H](CC(C)C)C(N)=O)[C@@H](C)CC)C(C)C)[C@@H](C)CC)[C@@H](C)O [GIWKTIKSMGKVFAGAIKQNL]
- MIC [1]: 3 µM (≈ 6.87 µg/mL)
- MIC [2]: 3 µM (≈ 6.87 µg/mL)
- MIC [3]: 3 µM (≈ 6.87 µg/mL)
- MIC [4]: 3 µM (≈ 6.87 µg/mL)
- MIC [5]: 3 µM (≈ 6.87 µg/mL)
- MIC (Acinetobacter baumannii): 6.25 µM (≈ 14.3 µg/mL)
- MIC [6]: 12.5 µM (≈ 28.6 µg/mL)
- MIC [7]: 12.5 µM (≈ 28.6 µg/mL)
- MIC [8]: 100 µM (≈ 229 µg/mL)

Compound: CC[C@H](C)[C@H](NC(=O)CN)C(=O)N[C@@H](Cc1c[nH]c2ccccc12)C(=O)N[C@@H](CCCCN)C(=O)N[C@H](C(=O)N[C@H](C(=O)N[C@@H](CCCCN)C(=O)N[C@@H](CO)C(=O)N[C@@H](CCSC)C(=O)NCC(=O)N[C@@H](CCCCN)C(=O)N[C@H](C(=O)N[C@@H](Cc1ccccc1)C(=O)N[C@@H](C)C(=O)NCC(=O)N[C@@H](CCCCN)C(=O)N[C@H](C(=O)N[C@@H](CCCCN)C(=O)N[C@@H](CCC(N)=O)C(=O)N[C@@H](CC(N)=O)C(=O)N[C@@H](CC(C)C)C(N)=O)[C@@H](C)CC)C(C)C)[C@@H](C)CC)[C@@H](C)O [GIWKTIKSMGKVFAGKIKQNL]
- MIC [1]: 6 µM (≈ 14.1 µg/mL)
- MIC [2]: 6 µM (≈ 14.1 µg/mL)
- MIC [3]: 6 µM (≈ 14.1 µg/mL)
- MIC [4]: 3 µM (≈ 7.04 µg/mL)
- MIC [5]: 6 µM (≈ 14.1 µg/mL)
- MIC (Acinetobacter baumannii): 6.25 µM (≈ 14.7 µg/mL)
- MIC [6]: 12.5 µM (≈ 29.3 µg/mL)
- MIC [7]: 25 µM (≈ 58.7 µg/mL)
- MIC [8]: 100 µM (≈ 235 µg/mL)

Compound: CC[C@H](C)[C@H](NC(=O)[C@H](CC(C)C)NC(=O)[C@H](C)NC(=O)[C@H](CO)NC(=O)[C@@H](NC(=O)[C@H](CC(C)C)NC(=O)[C@@H](N)CC(N)=O)C(C)C)C(=O)N[C@@H](CCC(=O)O)C(=O)NCC(=O)N[C@@H](CCCN=C(N)N)C(=O)N[C@@H](CCCCN)C(=O)N[C@@H](Cc1ccc(O)cc1)C(=O)N[C@@H](CC(C)C)C(=O)N[C@@H](CCCCN)C(=O)N[C@@H](CC(N)=O)C(=O)N[C@H](C(=O)N[C@@H](CC(C)C)C(=O)N[C@@H](CCCCN)C(=O)O)C(C)C [NLVSALIEGRKYLKNVLK]
- MIC [9]: 31.1 µM (≈ 64 µg/mL)
- MIC [10]: ≥ 62.2 µM
- MIC [11]: > 249 µM
- MIC [12]: ≥ 62.2 µM

Compound: NC(N)=NCCC[C@H](NC(=O)[C@H](CCCN=C(N)N)NC(=O)[C@H](CCCN=C(N)N)NC(=O)[C@H](CCCN=C(N)N)NC(=O)[C@H](Cc1c[nH]c2ccccc12)NC(=O)[C@H](Cc1c[nH]c2ccccc12)NC(=O)[C@H](Cc1c[nH]c2ccccc12)NC(=O)[C@H](Cc1c[nH]c2ccccc12)NC(=O)[C@H](CCCN=C(N)N)NC(=O)[C@H](CCCN=C(N)N)NC(=O)[C@H](CCCN=C(N)N)NC(=O)[C@@H](N)CCCN=C(N)N)C(=O)O [RRRRWWWWRRRR]
- MIC (Proteus mirabilis): 31.8 µM (≈ 64 µg/mL)
- MIC (Pseudomonas aeruginosa): > 31.8 µM
- MIC (Staphylococcus aureus): 3.98 µM (≈ 8 µg/mL)
- MIC (Streptococcus pyogenes): 0.807 µM (≈ 1.62 µg/mL)

Compound: NC(N)=NCCC[C@H](NC(=O)[C@H](CCCN=C(N)N)NC(=O)[C@H](CCCN=C(N)N)NC(=O)[C@H](CCCN=C(N)N)NC(=O)[C@H](CCCN=C(N)N)NC(=O)[C@H](CCCN=C(N)N)NC(=O)[C@H](CCCN=C(N)N)NC(=O)[C@H](CCCN=C(N)N)NC(=O)[C@@H](N)Cc1c[nH]c2ccccc12)C(=O)O [WRRRRRRRR]
- MIC (Proteus mirabilis): ≥ 44 µM
- MIC (Pseudomonas aeruginosa): > 44 µM
- MIC (Staphylococcus aureus): 22 µM (≈ 32 µg/mL)
- MIC (Streptococcus pyogenes): 2.75 µM (≈ 4 µg/mL)
